Laboratory results: ChEMBL document CHEMBL1145649, “Novel HCV NS5B polymerase inhibitors derived from 4-(1',1'-dioxo-1',4'-dihydro-1'lambda6-benzo[1',2',4']thiadiazin-3'-yl)-5-hydroxy-2H-pyridazin-3-ones: Part 4. Optimization of DMPK properties” (Bioorg Med Chem Lett, 2008)

Tests used:
[1] = Oral bioavailability in cynomolgus monkey at 1 mg/kg; format: ADME, organism-based, Macaca fascicularis; settings: in vivo
in vitro = settings: human, Caco-2
[2] = Fraction absorbed in cynomolgus monkey at 1 mg/kg, po; format: ADME, organism-based, Macaca fascicularis; parameters: dose 1 mg/kg, route oral; settings: in vivo, read-out: Fabs
physchem = settings: buffer, pH 7.4
[3] = Cmax in cynomolgus monkey at 1 mg/kg, po; format: ADME, organism-based, Macaca fascicularis; parameters: dose 1 mg/kg, route oral; settings: in vivo
[4] = Tmax in cynomolgus monkey at 1 mg/kg, po; format: ADME, organism-based, Macaca fascicularis; parameters: dose 1 mg/kg, route oral; settings: in vivo
Cynomolgus monkey [5] = assay: AUC (0 to infinity) in cynomolgus monkey at 1 mg/kg, po; format: ADME, organism-based, Macaca fascicularis, Plasma; parameters: time infinity, dose 1 mg/kg, route oral; settings: in vivo
[6] = Volume of distribution at steady state in cynomolgus monkey at 1 mg/kg, iv; format: ADME, organism-based, Macaca fascicularis; parameters: dose 1 mg/kg, route intravenous; settings: in vivo, read-out: Vdss
Cynomolgus monkey [7] = assay: AUC (0 to infinity) in cynomolgus monkey at 1 mg/kg, iv; format: ADME, organism-based, Macaca fascicularis, Plasma; parameters: time infinity, dose 1 mg/kg, route intravenous; settings: in vivo

Row | SMILES | bioavailability [1] | Papp A→B at 10 µM (in vitro) | Fa [2] | solubility (physchem) | Cmax [3] | Tmax [4] | AUC (Cynomolgus monkey [5]) | Vd [6] | AUC (Cynomolgus monkey [7])
1 | CN(c1ccc2c(c1)S(=O)(=O)N=C(c1c(O)c(-c3cccs3)nn(CCC(C)(C)C)c1=O)N2)S(C)(=O)=O | 3% | 0.01 ×10⁻⁶ cm/s | 5% | > 100 µM | – | – | – | – | –
2 | CC(C)CCn1nc(CC2CC2)c(O)c(C2=NS(=O)(=O)c3cc(NS(C)(=O)=O)ccc3N2)c1=O | 7% | 0.49 ×10⁻⁶ cm/s | 9% | > 100 µM | – | – | – | – | –
3 | CC(C)CCn1nc(CC2CCCC2)c(O)c(C2=NS(=O)(=O)c3cc(NS(C)(=O)=O)ccc3N2)c1=O | 15% | – | 18% | – | 113 ng/mL | 1.3 h | 370 ng·h/mL | 0.15 L/kg | 2540 ng·h/mL
4 | CC(C)(C)CCn1nc(C2=CCCC2)c(O)c(C2=NS(=O)(=O)c3cc(NS(C)(=O)=O)ccc3N2)c1=O | 4% | – | 7% | – | – | – | – | – | –
5 | CC(C)(C)CCn1nc(CC2CCCC2)c(O)c(C2=Nc3ccc(NS(C)(=O)=O)cc3S(=O)(=O)N2)c1=O | 10% | – | 18% | > 100 µM | 13 ng/mL | 6 h | 89 ng·h/mL | 0.57 L/kg | 851 ng·h/mL
6 | CC(C)CCn1nc(C(C)(C)C)c(O)c(C2=NS(=O)(=O)c3cc(NS(C)(=O)=O)ccc3N2)c1=O | 15% | 0.58 ×10⁻⁶ cm/s | 17% | > 100 µM | 294 ng/mL | 1.5 h | 611 ng·h/mL | 0.17 L/kg | 3980 ng·h/mL
7 | CC(C)CCn1nc(CC(C)(C)C)c(O)c(C2=NS(=O)(=O)c3cc(NS(C)(=O)=O)ccc3N2)c1=O | 6% | 0.29 ×10⁻⁶ cm/s | 8% | > 100 µM | – | – | – | – | –
8 | CS(=O)(=O)Nc1ccc2c(c1)S(=O)(=O)N=C(c1c(O)c(C3=CCCC3)nn(CCC3CC3)c1=O)N2 | 4% | 0.59 ×10⁻⁶ cm/s | 6% | > 100 µM | – | – | – | – | –
9 | CC(C)=Cc1nn(CCC(C)(C)C)c(=O)c(C2=NS(=O)(=O)c3cc(NS(C)(=O)=O)ccc3N2)c1O | 2% | 1 ×10⁻⁶ cm/s | 2% | > 100 µM | – | – | – | – | –
10 | CC(C)(C)CCn1nc(CC(C)(C)C)c(O)c(C2=NS(=O)(=O)c3cc(NS(C)(=O)=O)ccc3N2)c1=O | 4% | 0.15 ×10⁻⁶ cm/s | 4% | > 100 µM | – | – | – | – | –
11 | CC(C)(C)CCn1nc(C2CC2)c(O)c(C2=Nc3ccc(NS(C)(=O)=O)cc3S(=O)(=O)N2)c1=O | 4% | 0.95 ×10⁻⁶ cm/s | 5% | > 50 µM | – | – | – | – | –
12 | CC(C)CCn1nc(-c2cccs2)c(O)c(C2=NS(=O)(=O)c3cc(N(C)S(C)(=O)=O)ccc3N2)c1=O | – | – | 33% | > 100 µM | 11 ng/mL | 6 h | 72 ng·h/mL | 0.57 L/kg | 605 ng·h/mL
13 | CC(C)CCn1nc(-c2cccs2)c(O)c(C2=Nc3ccc(NS(C)(=O)=O)cc3S(=O)(=O)N2)c1=O | – | – | 4% | > 100 µM | 3.8 ng/mL | 6.3 h | 30 ng·h/mL | 0.18 L/kg | 1330 ng·h/mL
14 | Cc1ccc(-c2nn(Cc3ccccc3)c(=O)c(C3=Nc4ccccc4S(=O)(=O)N3)c2O)s1 | – | – | 36% | > 80 µM | 673 ng/mL | 2 h | 3650 ng·h/mL | 0.21 L/kg | 10900 ng·h/mL
15 | CC(C)(C)Cc1nn(CCC2CC2)c(=O)c(C2=Nc3ccc(NS(C)(=O)=O)cc3S(=O)(=O)N2)c1O | 6% | 0.7 ×10⁻⁶ cm/s | 7% | > 100 µM | – | – | – | – | –
